The supplement of paper PMC10307832

Key:
Assay in all cases: relative viability (nuclei count vs DMSO), 5 days (fraction); higher = more cells survive
Vismodegib + Foretinib = compound: CS(=O)(=O)c1ccc(C(=O)Nc2ccc(Cl)c(-c3ccccn3)c2)c(Cl)c1 [Vismodegib] + COc1cc2c(Oc3ccc(NC(=O)C4(C(=O)Nc5ccc(F)cc5)CC4)cc3F)ccnc2cc1OCCCN1CCOCC1 [Foretinib] (partner 0.25 µM)
How it was run: (§1)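 Cells from lung cancer lines were seeded into 1536-well plates and, one day later, dosed by pin tool. Treatments were either a single drug or a fixed dose of an anchor drug with five library-drug doses (not always all listed) in √10 steps. After 5 days, nuclei were stained in a one-step fixation (final 0.05% Triton X-100, 1% formaldehyde, 1 ug/ml Hoechst) and counted on 4× images, and relative viability is the treated-to-vehicle nuclei ratio, as the median of duplicate plates.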

Ruxolitinib + Alpelisib = compound: N#CC[C@H](C1CCCC1)n1cc(-c2ncnc3[nH]ccc23)cn1 [Ruxolitinib] + Cc1nc(NC(=O)N2CCC[C@H]2C(N)=O)sc1-c1ccnc(C(C)(C)C(F)(F)F)c1 [Alpelisib] (partner 2 µM)
How it was run: as §1

Vismodegib + Pictilisib = compound: CS(=O)(=O)c1ccc(C(=O)Nc2ccc(Cl)c(-c3ccccn3)c2)c(Cl)c1 [Vismodegib] + CS(=O)(=O)N1CCN(Cc2cc3nc(-c4cccc5[nH]ncc45)nc(N4CCOCC4)c3s2)CC1 [Pictilisib] (partner 1 µM)
How it was run: as §1

VE-821 + Pemetrexed = compound: CS(=O)(=O)c1ccc(-c2cnc(N)c(C(=O)Nc3ccccc3)n2)cc1 [VE-821] + Nc1nc2[nH]cc(CCc3ccc(C(=O)N[C@@H](CCC(=O)O)C(=O)O)cc3)c2c(=O)[nH]1 [Pemetrexed] (partner 0.2 µM)
How it was run: as §1

Row | Cell Line | relative viability (Vismodegib + Foretinib; first compound 0.08 µM) | relative viability (Vismodegib + Foretinib; first compound 0.253 µM) | relative viability (Vismodegib + Foretinib; first compound 0.8 µM) | relative viability (Vismodegib + Foretinib; first compound 2.53 µM) | relative viability (Vismodegib + Foretinib; first compound 8 µM) | relative viability (Ruxolitinib + Alpelisib; first compound 0.08 µM) | relative viability (Ruxolitinib + Alpelisib; first compound 0.253 µM) | relative viability (Ruxolitinib + Alpelisib; first compound 0.8 µM) | relative viability (Ruxolitinib + Alpelisib; first compound 2.53 µM) | relative viability (Ruxolitinib + Alpelisib; first compound 8 µM) | relative viability (Vismodegib + Pictilisib; first compound 0.08 µM) | relative viability (Vismodegib + Pictilisib; first compound 0.253 µM) | relative viability (Vismodegib + Pictilisib; first compound 0.8 µM) | relative viability (Vismodegib + Pictilisib; first compound 2.53 µM) | relative viability (Vismodegib + Pictilisib; first compound 8 µM) | relative viability (VE-821 + Pemetrexed; first compound 0.08 µM) | relative viability (VE-821 + Pemetrexed; first compound 0.253 µM) | relative viability (VE-821 + Pemetrexed; first compound 0.8 µM) | relative viability (VE-821 + Pemetrexed; first compound 2.53 µM) | relative viability (VE-821 + Pemetrexed; first compound 8 µM)
1 | LXF-289 | 0.943 | 0.913 | 1.01 | 0.97 | 0.922 | 1.01 | 1 | 1.04 | 0.948 | 0.815 | 0.735 | 0.783 | 0.765 | 0.883 | 0.802 | 0.902 | 0.928 | 0.936 | 1.01 | 0.847
2 | NCI-H23 | 0.925 | 0.899 | 1.01 | 0.593 | 1.2 | 0.611 | 0.726 | 0.801 | 0.72 | 0.535 | 0.535 | 0.462 | 0.432 | 0.452 | 0.425 | 0.919 | 0.838 | 0.55 | 0.463 | 0.272
3 | NCI-H322M | 1.01 | 0.965 | 1.01 | 0.87 | 0.97 | 0.901 | 0.844 | 0.873 | 0.802 | 1.01 | 0.544 | 0.445 | 0.527 | 0.484 | 0.509 | 0.616 | 0.639 | 0.542 | 0.532 | 0.385
4 | NCI-H358 | 0.677 | 0.629 | 0.797 | 0.68 | 0.782 | 0.787 | 0.913 | 0.867 | 0.65 | 0.554 | 0.301 | 0.326 | 0.294 | 0.37 | 0.34 | 0.177 | 0.199 | 0.177 | 0.166 | 0.122
5 | NCI-H441 | 1.24 | 1.04 | 0.931 | 0.774 | 1.01 | 0.665 | 0.52 | 0.71 | 0.553 | 0.565 | 0.505 | 0.444 | 0.536 | 0.391 | 0.502 | 0.283 | 0.264 | 0.24 | 0.276 | 0.264
6 | NCI-H460 | 0.948 | 0.951 | 1.04 | 0.975 | 1.08 | 0.567 | 0.389 | 0.567 | 0.398 | 0.306 | 0.3 | 0.385 | 0.286 | 0.318 | 0.313 | 0.0644 | 0.0622 | 0.0609 | 0.056 | 0.0393
7 | NCI-H520 | 0.839 | 0.678 | 0.697 | 0.709 | 0.682 | – | 0.837 | 1.04 | 0.988 | 0.756 | 0.332 | 0.254 | 0.271 | 0.274 | 0.309 | 0.75 | 0.657 | 0.582 | 0.361 | 0.223
8 | NCI-H596 | 0.826 | 0.83 | 0.463 | 0.964 | 1 | 0.521 | 0.567 | 0.559 | 0.531 | 0.547 | 0.385 | 0.404 | 0.391 | 0.391 | 0.397 | 0.511 | 0.48 | 0.485 | 0.454 | 0.374
9 | NCI-H647 | 1.24 | 1.22 | 1.26 | 1.02 | 1.14 | 1.33 | 1.11 | 1.15 | 0.941 | 0.643 | – | 0.407 | 0.389 | 0.401 | 0.586 | 0.157 | 0.139 | 0.125 | 0.0986 | 0.0738
10 | NCI-H650 | 0.792 | 0.999 | 0.988 | 1.03 | 0.951 | – | 1.33 | 1.23 | 0.964 | 0.667 | 0.799 | 0.733 | 0.643 | 0.945 | 0.947 | 0.934 | 0.846 | 1.02 | 0.9 | 0.835
11 | NCI-H661 | 1.07 | 1.02 | 0.99 | 0.961 | 1.09 | 0.406 | 0.623 | 0.579 | 0.583 | 0.252 | 0.3 | 0.392 | 0.403 | 0.331 | 0.367 | 0.979 | 0.923 | 0.84 | 0.744 | 0.571
12 | NCI-H838 | 0.987 | 0.979 | 0.997 | 1.06 | 1.03 | 0.848 | 0.973 | 0.823 | 0.618 | 0.31 | 0.389 | 0.408 | 0.415 | 0.489 | 0.504 | 0.259 | 0.264 | 0.21 | 0.17 | 0.159
13 | NCI-H1355 | 0.92 | 0.988 | 0.904 | 0.997 | 0.987 | 0.793 | 0.83 | 0.85 | 0.58 | 0.612 | 0.391 | 0.508 | 0.31 | 0.432 | 0.448 | 1.15 | 0.976 | 0.888 | 1.05 | 0.903
14 | NCI-H1395 | 0.918 | 0.873 | 0.999 | 0.961 | 1.03 | – | 1.27 | 1.21 | 1.02 | 0.892 | 0.573 | 0.593 | 0.491 | 0.631 | 0.752 | 0.792 | 0.789 | 0.827 | 0.745 | 0.486
15 | NCI-H1437 | 1.23 | 1.22 | 1.25 | 1.21 | 1.26 | 0.871 | 0.807 | 1.01 | 1.03 | 0.795 | 0.504 | 0.487 | 0.47 | 0.536 | 0.483 | 0.331 | 0.316 | 0.281 | 0.173 | 0.187
